Laboratory results as given in patent US5322859A, “Antiglaucoma drug composition and method” (University of Iowa Research Foundation, priority 1993, dated 1994).

How the values were obtained:
Serotonin 2 Receptor = Serotonin 2 Receptor (Homo sapiens, UniProt P28223); assay: NovaScreen receptor binding, Serotonin 2 Receptor; settings: for inhibition at 10 µM: 10^-5 M (10 μM); for inhibition at 0.1 µM: 10^-7 M (100 nM); for inhibition at 0.001 µM: 10^-9 M (1 nM)
Protocol: (§1) A number of compounds were sent to NovaScreen® (5200 Freeport Centre, Baltimore, Md. 21224) to determine the compounds' receptor selectivity. […] Compounds which show inhibition of 50% or greater at an assay concentration of 10 μM to 1 nM are considered active or very potent, respectively. In the table below a number of compounds show significant results for two or more of the significant receptors.

Alpha 2 Receptor = assay: NovaScreen receptor binding, Alpha 2 Receptor
Protocol: as §1

eye = settings: previously disclosed by applicants; 0.2% to about 0.6% w/v preferred; cited from earlier work
rabbit eye = assay: IOP recovery rate assay (hypertonic sodium chloride infusion, topical drug); format: in vivo; settings: 0.6% solution
Protocol: The "IOP recovery rate assay" as reported by Vareilles and Lotti (Ophthalmic Res., 13, 72-79, 1981) is used.
IOP was measured at 15, 25, 35, 45, 60, 75, 90 and 120 minutes with an applanation pneumatonometer (Digilab Model D). Fifty uL of a 0.6% solution of N,N'-dimethyl-2-phenylethylamine containing a pH 7.4 phosphate buffer was administered topically to the right eye 60 minutes before the start of the sodium chloride infusion. Control animals were given vehicle without drug.
The hypertonic sodium chloride solution causes a temporary decline in IOP which returns to normal IOP in about 90 minutes if no drug is administered. IOP gradually returns to normal at a constant rate buy more slowly if the in vivo secretion rate of aqueous humor is reduced due to the presence of drug. The return to normal IOP is measured from the positive linear slope which is a measure of the constant rate of return to normal IOP and begins at about 30-45 minutes after starting the NaCl infusion. A comparison of the slope with and without the addition of N=2, R&R'=CH3 to the rabbit eye is expressed as "% reduction".

Serotonin 1 Receptor = assay: NovaScreen receptor binding, Serotonin 1 Receptor
Protocol: as §1

Sequence of Serotonin 2 Receptor (P28223 whole entry): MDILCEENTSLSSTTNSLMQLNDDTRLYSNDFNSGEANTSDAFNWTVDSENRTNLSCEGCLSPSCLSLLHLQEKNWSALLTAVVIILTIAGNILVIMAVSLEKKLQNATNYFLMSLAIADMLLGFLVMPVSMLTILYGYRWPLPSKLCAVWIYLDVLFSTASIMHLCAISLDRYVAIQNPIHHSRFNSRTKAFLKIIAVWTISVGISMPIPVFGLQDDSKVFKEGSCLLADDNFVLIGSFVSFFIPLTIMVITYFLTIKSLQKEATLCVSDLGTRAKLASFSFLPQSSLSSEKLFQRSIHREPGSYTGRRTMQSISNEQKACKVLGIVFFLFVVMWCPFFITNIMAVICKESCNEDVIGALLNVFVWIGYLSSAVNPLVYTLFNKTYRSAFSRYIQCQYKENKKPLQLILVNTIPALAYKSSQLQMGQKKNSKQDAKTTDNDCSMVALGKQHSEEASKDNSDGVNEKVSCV

Structure (SMILES)	inhibition at 10 µM (Serotonin 2 Receptor)	inhibition at 0.1 µM (Serotonin 2 Receptor)	inhibition at 0.001 µM (Serotonin 2 Receptor)	% INHIBITION (Alpha 2 Receptor; 10^-5 M (10 μM))	% INHIBITION (Alpha 2 Receptor; 10^-7 M (100 nM))	% INHIBITION (Alpha 2 Receptor; 10^-9 M (1 nM))	tear stimulation (eye)	average slope of return to normal IOP (rabbit eye; 50 uL topical to right eye 60 min before NaCl infusion, n = 12 rabbit eyes, ± standard deviation, vehicle only 0.109 ± 0.0268)	% Reduction of slope vs vehicle (rabbit eye; topical, n = 12 rabbit eyes)	in vivo antiglaucoma activity (rabbit eye; topical, rabbit eye)	% INHIBITION (Serotonin 1 Receptor; 10^-5 M (10 μM))	% INHIBITION (Serotonin 1 Receptor; 10^-7 M (100 nM))	% INHIBITION (Serotonin 1 Receptor; 10^-9 M (1 nM))
CN(C)CCc1ccccc1 [n = 2, R&R' = CH3, N,N-dimethyl-2-phenylethylamine]	46.9%	10.7%	-2.1%	96.7%	15.3%	8.1%	ophthalmically effective tear stimulant	0.066 ± 0.027	38.5%	potent in vivo antiglaucoma drug	82.3%	70.6%	62.3%
CCCCCCN(C)CCc1ccccc1 [n = 2, R = CH3, R' = n-hexyl]	92%	9.6%	2.3%	95.7%	6.7%	1.6%	–	–	–	–	55.0%	30.0%	10.3%
CCN(CCc1ccccc1)C1CCCCC1.Cl [n = 2, R = C2 H5, R' = cyclohexyl, N-cyclohexyl-N-ethyl 2-phenylethylamine hydrochloride]	48.9%	4.7%	-11.2%	–	–	–	–	–	–	–	12.2%	-4.0%	2.6%
CN(CCCc1ccccc1)C1CCCCC1 [n = 3, R = methyl, R' = cyclohexyl]	82.1%	-8%	-15.4%	81.0%	9.3%	3.3%	–	–	–	–	5.7%	-10.2%	-6.3%
CCN(C)Cc1ccccc1 [n = 1, R = CH3, R' = C2 H5]	–	–	–	53.0%	4.7%	2.2%	–	–	–	–	17.2%	6.2%	5.7%
